Results published in patent publication US20020040032A1, “Methods for stimulation of synthesis of synaptophysin in the central nervous system” (priority 2000, published 2002).

Experiments:
[1] = tested on: synaptophysin; assay: Time course of synaptophysin accumulation after administration to PC12 cells, Western immunoblot (Example 2); assay type: cell-based
Description: To determine the time course of synaptophysin accumulation in the extracellular fluid after administration of AIT-082 or NGF to PC12 cells, an experiment similar to the experiment of Example 1 was carried out using multiple time points. Five to six million PC12 cells were treated in RPMI 1640 and 0.5% FBS with doses of AIT-082 (10 nM-100 μM). […] Levels of synaptophysin in samples from conditioned media and cell lysates were measured by Western immunoblotting with anti-synaptophysin antibodies.

[2] = tested on: synaptophysin; assay: Synaptophysin levels in PC12 cells after treatment, Western immunoblot (Example 1); assay type: cell-based
Description: PC12 cells were first grown to 70-80% confluence in the regular medium. A day prior to the experiment, PC12 cells were subcultured uniformly onto the plate with minimum cellular aggregation/clumping to approximately 1×10^6 cells per 60-mm plate. The PC12 cells were then subjected to treatments with either AIT-082, NGF, bFGF or a combination as previously described (5). AIT-082 was added into separate plates at […]: 0, 5, 20, 30, 50, 100, 300 ng/ml and also 1, 3, 10, 30, 100 μg/ml. For comparative purposes, cultures were treated with NGF at 10 and 50 ng/ml, and bFGF was used at 50 ng/ml. Additional cultures contained both AIT-082 (300 ng/ml) and either NGF (50 ng/ml) or bFGF (50 ng/ml). These different agents were prepared in the same culture medium and added to the respective plate. Following incubation for 48 hours, the conditioned medium from each plate was collected.
Total proteins from the conditioned media were analyzed on a 12% polyacrylamide gel containing SDS (SDS-PAGE), and western blot analysis was performed in the Mini-PROTEAN II system of Bio-Rad as described previously (7). Levels of synaptophysin in the conditioned medium and the cell lysates (intracellular) were analyzed using an anti-synaptophysin antibody (Boehringer Mannheim). A biotinylated secondary antibody, horse anti-mouse (Boehringer Mannheim), was also used. The detection system was based on the avidin-biotinylated-complex (Vector labs, Burlingame, Calif.) and enzymatic color reactions.

[3] = tested on: PC12 cells; assay: Differentiation of PC12 cells (Example 2); assay type: cell-based
[4] = tested on: nerve growth factor (NGF), neurotrophin-3, and basic fibroblast growth factor (bFGF); settings: reference 4 (Rathbone et al. 1999); cited from earlier work

Row | Molecule | levels of synaptophysin in the conditioned medium vs. control ([1]; 10 nM-100 μM, 6, 12, 24, 48, or 72 hours, each time point) | intracellular levels of synaptophysin ([1]; cell lysates, 10 nM-100 μM) | dose giving the highest level of synaptophysin ([2]; PC12 cells, conditioned medium, densitometry, FIG. 2) [ng/mL] | amount of synaptophysin in the conditioned medium vs. control ([2]; PC12 cells, dose-dependent from 5-30 ng/ml, FIG. 1 lanes 5-8 vs. lane 1) | level of synaptophysin in the conditioned medium vs. control at higher doses ([2]; PC12 cells, doses above 30 ng/ml, increase not sustained to the same extent) | intracellular levels of synaptophysin vs. control ([2]; PC12 cultures, cell lysates) | effect of cotreatment on NGF-mediated differentiation ([3]; cotreatment with NGF) | induction of expression of neurotrophins [4] | phenotype after treatment [3]
1 | O=C(CCn1cnc2c(=O)[nH]cnc21)Nc1ccc(C(=O)O)cc1 [AIT-082, N-4-carboxyphenyl-3-(6-oxohydropurin-9-yl)propanamide] | significantly increased | significant increase | 30 | increased | still greater than the control | significant increase | enhanced NGF-mediated differentiation | can induce the expression of at least three neurotrophins | –
2 | NGF: Nerve growth factor procured from Life Technologies | – | – | – | – | – | – | – | – | sympathetic neuronal phenotypes
